Data set [1] can be described thus: Qualitative solubility comparison of monomeric photoinitiators. It is filed as physicochemical. Conditions: photoinitiator monomer; concentration and temperature printed in the cell.
Protocol: 100 mg of photoinitiator monomer sample was placed in a vial and appropriate amount of solvent was added. The vial was stirred at ambient temperature (20° C.) overnight or warmed with a hot air gun to 60° C. for 10 minutes. The qualitative solubility of the sample was then judged based on residual undissolved material in the vial.

Regarding `CCCOc1ccc(Cl)c2c(=O)c3ccccc3sc12` [1-chloro-4-propoxy thioxanthone], the UV absorption wavelength (350-400 nm band region) is recorded as 387 nm. Further, the “E1^1 (extinction coefficient of absorption)” value (at the stated absorption wavelength) is 175.
`O=C(c1ccccc1)c1ccc(OCCCN(CCO)CCO)cc1` [Preparatory Example 1, 4-{3-[bis(2-hydroxyethyl)amino]propoxy}benzophenone]: the water solubility entry in data set [1] was “sparingly soluble at 100 °C”.
With `O=c1c2ccccc2sc2c(OCCCN(CCO)CCO)ccc(Cl)c12` [Preparatory Example 2, 4-{3-[bis(2-hydroxyethyl)amino]propoxy}-1-chloro-9H-thioxanthen-9-one], in data set [1], the water solubility result was “sparingly soluble at 100 °C”.

The values are drawn from US10040893B2, “Polymeric photoinitiators and photoinitiator monomers” (Coloplast A/S, priority 2012, dated 2018).
